Measured values from patent publication US12714105B2, “Herbicidal mixtures and compositions and methods of use” (priority 2020, dated 2026).

Experiments:
Type in all cases: in vivo
[1] = tested on: broadleaf weeds (Oxalis, Parsley-Preriot and white clover); assay: Pre-emergent control of broadleaf weeds in Bermuda grass (field trial); settings: for Percent Amount of Broadleaf weeds present in Test plots: Percent of SLWC AI's 0, Isoxaben Rate 1144 g ai/ha
Procedure: A trial of formulations of the present invention (dithiopyr, isoxaben, MCPP, 2,4-D, and dicamba, e.g., dithiopyr and SLWC) was carried out and is shown in Table 6, below. The trial was initiated on Mar. 12, 2019 on Bermuda grass. The turf was maintained at a height of 1½ inches and watered (weekly to ½ inch). Pre-emergent control of broadleaf weeds (Oxalis, Parsley-Preriot and white clover) were evaluated as a percentage of the area in the test plots (1×1 meter and 3 replicates).

[2] = tested on: Broadleaf weeds (dandelions, Oxalis, plantain and white clover); assay: Pre-emergent control of Broadleaf weeds in Tall Fescue (field trial); settings: for Percent Amount of Broadleaf weeds present in Test plots: Percent of SLWC AI's 0, Isoxaben Rate 1144 g ai/ha
Procedure: (§1) A trial of the formulation of the present invention (dithiopyr, isoxaben, MCPP, 2,4-D, and dicamba, e.g., dithiopyr and SLWC) was carried out and is shown in Table 4, below. The trial was initiated on Mar. 12, 2019 on Tall Fescue. The turf was maintained at the height of 2½ inches and watered (twice weekly to ½ inch). Pre-emergent control of Broadleaf weeds (dandelions, Oxalis, plantain and white clover) was evaluated as a percentage of the area in the test plots (1×1 meter and 3 replicates).

[3] = tested on: Broadleaf weeds (dandelions, Oxalis, and white clover); assay: Pre-emergent control of Broadleaf weeds in Kentucky bluegrass (field trial); settings: for Percent Amount of Broadleaf weeds present in Test plots: Percent of SLWC AI's 0, Isoxaben Rate 1130 g ai/ha
Procedure: as §1, with “of formulations” for “of the formulation”, “Table 5,” for “Table 4,”, “on Kentucky bluegrass.” for “on Tall Fescue.”, “at a” for “at the”, “height if” for “height of”, “Oxalis,” for “Oxalis, plantain”

Large Crabgrass [4] = assay: Pre-emergent control of Large Crabgrass in Kentucky bluegrass turf (field trial)
Procedure: A trial of formulations of the present invention (dithiopyr, isoxaben, MCPP, 2,4-D, and dicamba) was carried out and is shown in Table 2, below. The trial was initiated on Mar. 12, 2019 on Kentucky bluegrass. The turf was maintained at a height of 2½ inches, watered (twice weekly to ½ inch) and fertilized at local recommendations (0.5 lbs. once June 15th). Pre-emergent control of Large Crabgrass was evaluated as a percentage of the area in the test plots (1 xl meter and 3 replicates).

Large Crabgrass [5] = assay: Pre-emergent control of Large Crabgrass in Tall Fescue turf (field trial)
Procedure: as §1, with “formulations” for “the formulation”, “dicamba;” for “dicamba,”, “3,” for “4,”, “Large Crabgrass” for “Broadleaf weeds (dandelions, Oxalis, plantain and white clover)”, “(1 xl” for “(1×1”

[6] = 69 DA-A, dithiopyr only, Dithiopyr Rate 280 g ai/ha
[7] = 83 DA-A, dithiopyr only, Dithiopyr Rate 280 g ai/ha
[8] = 111 DA-A, dithiopyr only, Dithiopyr Rate 280 g ai/ha
[9] = 125 DA-A, dithiopyr only, Dithiopyr Rate 280 g ai/ha
[10] = 139 DA-A, dithiopyr only, Dithiopyr Rate 280 g ai/ha
[11] = 161 DA-A, dithiopyr only, Dithiopyr Rate 280 g ai/ha
[12] = 191 DA-A, dithiopyr only, Dithiopyr Rate 280 g ai/ha

With `CCC(C)(CC)c1cc(NC(=O)c2c(OC)cccc2OC)on1` [Isoxaben (Gallery 75 DF), Isoxaben] the “Percent Amount of Broadleaf weeds present in Test plots” value (from here on “Percent Amount”) ([1]; 6 DA-A) was 6.3%, the “Percent Amount” value ([1]; 29 DA-A) was 8.3% and the “Percent Amount” value ([1]; 55 DA-A) was 11%. For the same molecule, the “Percent Amount” value ([1]; 83 DA-A) was 3.3%, the “Percent Amount” value ([1]; 111 DA-A) was 3% and the “Percent Amount” value ([1]; 125 DA-A) was 0%. For the same molecule, the “Percent Amount” value ([1]; 139 DA-A) was 0.7%, the “Percent Amount” value ([1]; 161 DA-A) was 0.3% and the “Percent Amount” value ([2]; 6 DA-A) was 3.3%. The “Percent Amount” value ([2]; 29 DA-A) was 2.7%, the “Percent Amount” value ([2]; 55 DA-A) was 2% and the “Percent Amount” value ([2]; 83 DA-A) was 8.3%. The “Percent Amount” value ([2]; 111 DA-A) was 2.7%, the “Percent Amount” value ([2]; 125 DA-A) was 0.7% and the “Percent Amount” value ([2]; 139 DA-A) was 4%. For the same molecule, the “Percent Amount” value ([2]; 161 DA-A) was 0%, the “Percent Amount” value ([3]; 6 DA-A) was 4.3% and the “Percent Amount” value ([3]; 29 DA-A) was 5%. For the same molecule, the “Percent Amount” value ([3]; 55 DA-A) was 14%, the “Percent Amount” value ([3]; 83 DA-A) was 9.7% and the “Percent Amount” value ([3]; 111 DA-A) was 17.3%. The “Percent Amount” value ([3]; 125 DA-A) was 6.3%, the “Percent Amount” value ([3]; 139 DA-A) was 7.7% and the “Percent Amount” value ([3]; 161 DA-A) was 1.7%. For the same molecule, the “Large Crabgrass, percentage of the area in the test plots” value (shortened to “Large Crabgrass, percentage of the area”) (Large Crabgrass [4]; 69 DA-A, isoxaben only, LR (labelled rate)) was 0%, the “Large Crabgrass, percentage of the area” value (Large Crabgrass [4]; 83 DA-A, isoxaben only, LR (labelled rate)) was 0% and the “Large Crabgrass, percentage of the area” value (Large Crabgrass [4]; 111 DA-A, isoxaben only, LR (labelled rate)) was 6%. For the same molecule, the “Large Crabgrass, percentage of the area” value (Large Crabgrass [4]; 125 DA-A, isoxaben only, LR (labelled rate)) was 15%, the “Large Crabgrass, percentage of the area” value (Large Crabgrass [4]; 139 DA-A, isoxaben only, LR (labelled rate)) was 30% and the “Large Crabgrass, percentage of the area” value (Large Crabgrass [4]; 161 DA-A, isoxaben only, LR (labelled rate)) was 28.3%. The “Large Crabgrass, percentage of the area” value (Large Crabgrass [4]; 191 DA-A, isoxaben only, LR (labelled rate)) was 73.3%, the “Large Crabgrass, percentage of the area” value (Large Crabgrass [5]; 69 DA-A, isoxaben only (rate not given)) was 0% and the “Large Crabgrass, percentage of the area” value (Large Crabgrass [5]; 83 DA-A, isoxaben only (rate not given)) was 0%. The “Large Crabgrass, percentage of the area” value (Large Crabgrass [5]; 111 DA-A, isoxaben only (rate not given)) was 7.7%, the “Large Crabgrass, percentage of the area” value (Large Crabgrass [5]; 125 DA-A, isoxaben only (rate not given)) was 16% and the “Large Crabgrass, percentage of the area” value (Large Crabgrass [5]; 139 DA-A, isoxaben only (rate not given)) was 21.7%. For the same molecule, the “Large Crabgrass, percentage of the area” value (Large Crabgrass [5]; 161 DA-A, isoxaben only (rate not given)) was 58.3% and the “Large Crabgrass, percentage of the area” value (Large Crabgrass [5]; 191 DA-A, isoxaben only (rate not given)) was 63.3%.
For `CSC(=O)c1c(C(F)F)nc(C(F)(F)F)c(C(=O)SC)c1CC(C)C` [Dithiopyr (Dimension), Dimethyl 2-(difluoromethyl)-4-(2-methylpropyl)-6-(trifluoromethyl)pyridine-3,5-dicarbothioate], the “effect of the addition of Dithiopyr to SLWC on the pre-emergent control of broadleaf weeds provided by Isoxaben” value (from here on “effect of the addition … by Isoxaben”) ([1]; in words) was “did not affect”, the “effect of the addition … by Isoxaben” value ([2]; in words) was “did not affect” and the “effect of the addition … by Isoxaben” value ([3]; in words) was “did not affect”. For the same molecule, the “Large Crabgrass, percentage of the area” value (Large Crabgrass [4]; [6]) was 0%, the “Large Crabgrass, percentage of the area” value (Large Crabgrass [4]; [7]) was 0% and the “Large Crabgrass, percentage of the area” value (Large Crabgrass [4]; [8]) was 5.7%. The “Large Crabgrass, percentage of the area” value (Large Crabgrass [4]; [9]) was 5%, the “Large Crabgrass, percentage of the area” value (Large Crabgrass [4]; [10]) was 16% and the “Large Crabgrass, percentage of the area” value (Large Crabgrass [4]; [11]) was 26.7%. For the same molecule, the “Large Crabgrass, percentage of the area” value (Large Crabgrass [4]; [12]) was 40%, the “effect of the addition of Dithiopyr to SLWC on the pre-emergent control of Large Crabgrass” value (Large Crabgrass [4]; in words) was “did not affect” and the “Large Crabgrass, percentage of the area” value (Large Crabgrass [5]; [6]) was 0%. For the same molecule, the “Large Crabgrass, percentage of the area” value (Large Crabgrass [5]; [7]) was 0%, the “Large Crabgrass, percentage of the area” value (Large Crabgrass [5]; [8]) was 0.7% and the “Large Crabgrass, percentage of the area” value (Large Crabgrass [5]; [9]) was 5%. For the same molecule, the “Large Crabgrass, percentage of the area” value (Large Crabgrass [5]; [10]) was 7.3%, the “Large Crabgrass, percentage of the area” value (Large Crabgrass [5]; [11]) was 43.3% and the “Large Crabgrass, percentage of the area” value (Large Crabgrass [5]; [12]) was 50%. For the same molecule, the “effect of the addition of Dithiopyr to SLWC on the pre-emergent control of Large Crabgrass” value (Large Crabgrass [5]; in words) was “did not affect”.
